The values that follow come from patent US4898878A, “Antioxidant thiohistidine compounds” (priority 1987, dated 1990).

For the test, the system named is eggs. Put plainly: Oxygen consumption by eggs. The class given is cell-based, sea urchin. The text has this: First, both ovothiol and NAD(P)H are intracellular metabolites, whereas ovoperoxidase is extracellular during the respiratory burst. […] Second, H2 02 is not released stoichiometrically by the ovoperoxidase-oxidase, so this cannot account for the significant concentrations of H2 02 previously detected at fertilization. Third, aminotriazole inhibits both the NAD(P)H oxidase and peroxidase activities of ovoperoxidase, yet has no effect on oxygen consumption by eggs.

As for `Nc1nc[nH]n1` [aminotriazole], the “effect on oxygen consumption by eggs” value is reported as “no effect”.
